# Measured values as given in PubChem BioAssay (NCI).
# “And” between values parts separate entries of the source, which are not always exact repeats. Equal entries are not always repeated.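 Test compounds were applied to cells in 96-well plates for 48 hours at 5 doses. The concentration for 50% growth inhibition is given as GI50. At the TGI there is no net growth.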
# Columns and labels:
# Assay in all cases: DTP human tumour cell line panel, 48 h
# NCI-H522 lung = system: NCI-H522 lung
# COLO 205 colon = system: COLO 205 colon
# RXF 393 renal = system: RXF 393 renal
# HOP-92 NSCLC = system: HOP-92 NSCLC
# M14 melanoma = system: M14 melanoma
# SK-MEL-2 melanoma = system: SK-MEL-2 melanoma
# U251 CNS = system: U251 CNS
# HL-60(TB) leukemia = system: HL-60(TB) leukemia
# MALME-3M melanoma = system: MALME-3M melanoma
# MDA-MB-231 breast = system: MDA-MB-231 breast
# HCT-15 colon = system: HCT-15 colon
# BT-549 breast = system: BT-549 breast
# HT29 colon = system: HT29 colon
# PC-3 prostate = system: PC-3 prostate
# SW-620 colon = system: SW-620 colon
# NCI/ADR-RES ovarian = system: NCI/ADR-RES ovarian
# EKVX NSCLC = system: EKVX NSCLC
# LOX IMVI melanoma = system: LOX IMVI melanoma
# SF-268 CNS = system: SF-268 CNS
# KM12 colon = system: KM12 colon
# MDA-MB-435 = system: MDA-MB-435
# IGROV1 ovarian = system: IGROV1 ovarian
# CCRF-CEM leukemia = system: CCRF-CEM leukemia
# SK-MEL-28 melanoma = system: SK-MEL-28 melanoma
# ACHN renal = system: ACHN renal
# MCF7 breast = system: MCF7 breast
# SR leukemia = system: SR leukemia
# DU-145 prostate = system: DU-145 prostate
# OVCAR-3 ovarian = system: OVCAR-3 ovarian
# NCI-H226 lung = system: NCI-H226 lung
# UO-31 renal = system: UO-31 renal
# SN12C renal = system: SN12C renal
# NCI-H460 lung = system: NCI-H460 lung
# CAKI-1 renal = system: CAKI-1 renal
# TK-10 renal = system: TK-10 renal
# HOP-62 NSCLC = system: HOP-62 NSCLC
# UACC-257 melanoma = system: UACC-257 melanoma
# UACC-62 melanoma = system: UACC-62 melanoma
# SNB-75 CNS = system: SNB-75 CNS
# OVCAR-8 ovarian = system: OVCAR-8 ovarian
# A549 NSCLC = system: A549 NSCLC
# HS 578T breast = system: HS 578T breast
# MDA-N = system: MDA-N
# RPMI-8226 leukemia = system: RPMI-8226 leukemia
# SK-MEL-5 melanoma = system: SK-MEL-5 melanoma
# SF-295 CNS = system: SF-295 CNS
# SF-539 CNS = system: SF-539 CNS
# SNB-19 CNS = system: SNB-19 CNS
# HCC-2998 colon = system: HCC-2998 colon
# HCT-116 colon = system: HCT-116 colon
# NCI-H23 lung = system: NCI-H23 lung
# OVCAR-5 ovarian = system: OVCAR-5 ovarian
# A498 renal = system: A498 renal
# T-47D breast = system: T-47D breast
# 786-0 renal = system: 786-0 renal
# MOLT-4 leukemia = system: MOLT-4 leukemia
# K-562 leukemia = system: K-562 leukemia
# SK-OV-3 ovarian = system: SK-OV-3 ovarian
# OVCAR-4 ovarian = system: OVCAR-4 ovarian
smiles,measurement,setting,value
COc1ccc(/C=C2\c3cc(OC)c(OC)cc3CCN2C(=O)c2ccccc2)cc1OC,TGI,NCI-H522 lung,45.4 µM
same,TGI,COLO 205 colon,> 100 µM
same,TGI,RXF 393 renal,> 100 µM
same,TGI,HOP-92 NSCLC,> 100 µM
same,TGI,M14 melanoma,> 100 µM
same,TGI,SK-MEL-2 melanoma,> 100 µM
same,TGI,U251 CNS,> 100 µM
same,TGI,HL-60(TB) leukemia,65 µM
same,TGI,MALME-3M melanoma,71.1 µM
same,TGI,MDA-MB-231 breast,> 100 µM
same,TGI,HCT-15 colon,> 100 µM
same,TGI,BT-549 breast,> 100 µM
same,TGI,HT29 colon,> 100 µM
same,TGI,PC-3 prostate,> 100 µM
same,TGI,SW-620 colon,> 100 µM
same,TGI,NCI/ADR-RES ovarian,76.4 µM
same,TGI,EKVX NSCLC,> 100 µM
same,TGI,LOX IMVI melanoma,> 100 µM
same,TGI,SF-268 CNS,> 100 µM
same,TGI,KM12 colon,> 100 µM
same,TGI,MDA-MB-435,49 µM
same,TGI,IGROV1 ovarian,> 100 µM
same,TGI,CCRF-CEM leukemia,98.4 µM
same,TGI,SK-MEL-28 melanoma,> 100 µM
same,TGI,ACHN renal,> 100 µM
same,TGI,MCF7 breast,> 100 µM
same,TGI,SR leukemia,> 100 µM
same,TGI,DU-145 prostate,> 100 µM
same,TGI,OVCAR-3 ovarian,> 100 µM
same,TGI,NCI-H226 lung,> 100 µM
same,TGI,UO-31 renal,> 100 µM
same,TGI,SN12C renal,> 100 µM
same,TGI,NCI-H460 lung,87.6 µM
same,TGI,CAKI-1 renal,> 100 µM
same,TGI,TK-10 renal,> 100 µM
same,TGI,HOP-62 NSCLC,> 100 µM
same,TGI,UACC-257 melanoma,> 100 µM
same,TGI,UACC-62 melanoma,> 100 µM
same,TGI,SNB-75 CNS,> 100 µM
same,TGI,OVCAR-8 ovarian,> 100 µM
same,TGI,A549 NSCLC,> 100 µM
same,TGI,HS 578T breast,> 100 µM
same,TGI,MDA-N,65.2 µM
same,TGI,RPMI-8226 leukemia,> 100 µM
same,TGI,SK-MEL-5 melanoma,45 µM
same,TGI,SF-295 CNS,> 100 µM
same,TGI,SF-539 CNS,> 100 µM
same,TGI,SNB-19 CNS,> 100 µM
same,TGI,HCC-2998 colon,> 100 µM
same,TGI,HCT-116 colon,> 100 µM
same,TGI,NCI-H23 lung,> 100 µM
same,TGI,OVCAR-5 ovarian,> 100 µM
same,TGI,A498 renal,> 100 µM
same,TGI,T-47D breast,86.8 µM
same,TGI,786-0 renal,> 100 µM
same,TGI,MOLT-4 leukemia,80.6 µM
same,TGI,K-562 leukemia,> 100 µM
FC(F)(F)c1ccc2c(c1)nc(-c1ccc(Cl)cc1)n2CC1CCCN2CCCCC12 (stereo not drawn),TGI,NCI-H522 lung,26.5 µM
same,TGI,COLO 205 colon,24.4 µM
same,TGI,RXF 393 renal,30.1 µM
same,TGI,HOP-92 NSCLC,29.1 µM
same,TGI,SK-OV-3 ovarian,21.3 µM
same,TGI,M14 melanoma,28 µM
same,TGI,SK-MEL-2 melanoma,30.2 µM
same,TGI,U251 CNS,27.3 µM
same,TGI,HL-60(TB) leukemia,29.2 µM
same,TGI,MALME-3M melanoma,29.8 µM
same,TGI,MDA-MB-231 breast,20.3 µM
same,TGI,HCT-15 colon,28.8 µM
same,TGI,BT-549 breast,27.9 µM
same,TGI,HT29 colon,19 µM
same,TGI,PC-3 prostate,23.7 µM
same,TGI,SW-620 colon,38.1 µM
same,TGI,NCI/ADR-RES ovarian,29.2 µM
same,TGI,EKVX NSCLC,23.4 µM
same,TGI,LOX IMVI melanoma,29.8 µM
same,TGI,SF-268 CNS,27.5 µM
same,TGI,KM12 colon,41.8 µM
same,TGI,MDA-MB-435,35.8 µM
same,TGI,IGROV1 ovarian,27.8 µM
same,TGI,CCRF-CEM leukemia,36 µM
same,TGI,SK-MEL-28 melanoma,30.8 µM
same,TGI,ACHN renal,27.9 µM
same,TGI,MCF7 breast,29.8 µM
same,TGI,SR leukemia,33.8 µM
same,TGI,DU-145 prostate,30.4 µM
same,TGI,OVCAR-3 ovarian,33.6 µM
same,TGI,NCI-H226 lung,31.4 µM
same,TGI,UO-31 renal,22.9 µM
same,TGI,SN12C renal,26 µM
same,TGI,NCI-H460 lung,31.4 µM
same,TGI,CAKI-1 renal,33.3 µM
same,TGI,TK-10 renal,28.5 µM
same,TGI,HOP-62 NSCLC,28.6 µM
same,TGI,UACC-257 melanoma,28.7 µM
same,TGI,UACC-62 melanoma,28.1 µM
same,TGI,SNB-75 CNS,21.7 µM
same,TGI,OVCAR-8 ovarian,30.1 µM
same,TGI,A549 NSCLC,29.5 µM
same,TGI,HS 578T breast,36.3 µM
same,TGI,MDA-N,29.9 µM
same,TGI,OVCAR-4 ovarian,35.6 µM
same,TGI,SK-MEL-5 melanoma,27.1 µM
same,TGI,SF-295 CNS,31.7 µM
same,TGI,SF-539 CNS,28.8 µM
same,TGI,SNB-19 CNS,31.2 µM
same,TGI,HCC-2998 colon,26.7 µM
same,TGI,HCT-116 colon,27.4 µM
same,TGI,OVCAR-5 ovarian,21.4 µM
same,TGI,A498 renal,27.5 µM
same,TGI,T-47D breast,39.8 µM
same,TGI,786-0 renal,27 µM
same,TGI,MOLT-4 leukemia,13 µM
CC1(Br)Cc2ccccc2C1=O (stereo not drawn),GI50,NCI-H522 lung,0.318 µM
same,TGI,NCI-H522 lung,1.41 µM
same,TGI,COLO 205 colon,17.5 µM
same,TGI,HOP-92 NSCLC,16.5 µM
same,TGI,SK-OV-3 ovarian,65.9 µM
same,GI50,M14 melanoma,1.08 µM
same,TGI,M14 melanoma,4.4 µM
same,TGI,SK-MEL-2 melanoma,24.2 µM
same,TGI,U251 CNS,18.7 µM
same,GI50,HL-60(TB) leukemia,0.495 µM
same,TGI,HL-60(TB) leukemia,6.67 µM and 2.35 µM
same,TGI,MALME-3M melanoma,9.62 µM and 14.1 µM
same,TGI,MDA-MB-231 breast,22.9 µM
same,TGI,BT-549 breast,5.03 µM
same,TGI,HT29 colon,15.4 µM
same,TGI,PC-3 prostate,22.5 µM
same,GI50,SW-620 colon,0.444 µM
same,TGI,SW-620 colon,2.69 µM
same,TGI,NCI/ADR-RES ovarian,> 100 µM
same,TGI,EKVX NSCLC,11.2 µM
same,GI50,LOX IMVI melanoma,0.533 µM
same,TGI,LOX IMVI melanoma,2.41 µM
same,TGI,SF-268 CNS,20.2 µM
same,TGI,KM12 colon,25.8 µM
same,GI50,MDA-MB-435,2.14 µM
same,TGI,MDA-MB-435,12.4 µM
same,TGI,IGROV1 ovarian,15 µM
same,GI50,CCRF-CEM leukemia,0.318 µM
same,TGI,CCRF-CEM leukemia,6.75 µM and 1.82 µM
same,TGI,SK-MEL-28 melanoma,7.68 µM
same,TGI,ACHN renal,16.8 µM
same,GI50,MCF7 breast,2.22 µM
same,TGI,MCF7 breast,8.52 µM
same,GI50,SR leukemia,0.129 µM
same,TGI,SR leukemia,1.25 µM
same,TGI,DU-145 prostate,33.6 µM
same,GI50,OVCAR-3 ovarian,4.11 µM
same,TGI,OVCAR-3 ovarian,14.5 µM
same,TGI,NCI-H226 lung,5.93 µM
same,TGI,UO-31 renal,20.2 µM
same,GI50,SN12C renal,4.55 µM
same,TGI,SN12C renal,14.8 µM
same,GI50,NCI-H460 lung,> 100 µM
same,TGI,NCI-H460 lung,> 100 µM
same,GI50,CAKI-1 renal,1.75 µM
same,TGI,CAKI-1 renal,3.86 µM
same,TGI,TK-10 renal,29.8 µM
same,TGI,HOP-62 NSCLC,29.1 µM
same,GI50,UACC-257 melanoma,13.3 µM
same,TGI,UACC-257 melanoma,29.2 µM
same,TGI,UACC-62 melanoma,3.63 µM
same,TGI,SNB-75 CNS,27 µM
same,GI50,OVCAR-8 ovarian,4.11 µM
same,TGI,OVCAR-8 ovarian,15.7 µM
same,TGI,A549 NSCLC,32.4 µM
same,TGI,HS 578T breast,38.6 µM
same,GI50,MDA-N,4.45 µM
same,TGI,MDA-N,18.2 µM
same,GI50,RPMI-8226 leukemia,3.02 µM
same,TGI,RPMI-8226 leukemia,14.7 µM
same,GI50,OVCAR-4 ovarian,2.14 µM
same,TGI,OVCAR-4 ovarian,8.43 µM
same,GI50,SK-MEL-5 melanoma,2.75 µM
same,TGI,SK-MEL-5 melanoma,12.5 µM
same,TGI,SF-295 CNS,36.2 µM
same,TGI,SF-539 CNS,16.8 µM
same,TGI,SNB-19 CNS,81.8 µM
same,TGI,HCC-2998 colon,> 100 µM
same,GI50,HCT-116 colon,2.01 µM
same,TGI,HCT-116 colon,5.02 µM
same,GI50,NCI-H23 lung,1.88 µM
same,TGI,NCI-H23 lung,5.38 µM
same,TGI,OVCAR-5 ovarian,14.2 µM
same,TGI,A498 renal,57.2 µM
same,GI50,T-47D breast,4.18 µM
same,TGI,T-47D breast,21.2 µM
same,TGI,786-0 renal,6.39 µM
same,GI50,MOLT-4 leukemia,0.423 µM
same,TGI,MOLT-4 leukemia,9.91 µM and 3.4 µM
same,GI50,K-562 leukemia,0.571 µM
